This test relates to Staphylococcus aureus NCTC 8325-4. Put plainly: Growth in LB broth flask culture with or without calcium chloride supplementation (visual growth, terminal plate count). It counts as cell-based. Conditions: for critical limit in combination with 0.5% calcium chloride: procedures as for Table 8. On the procedure:
The test organism is Staphylococcus aureus NCTC 8325-4 as described in the methods and flask cultures are 100 ml of Luria-Bertani broth (LB broth) in 250 ml Erlenmeyer flasks. LB broth is used instead of brain Heart Infusion because it is more defined and limited in mineral content.
A standard inoculum is grown as described in the methods section and adjusted to a viable cell count of […] by dilution in sterile saline, 0.1 ml of this is used to aseptically inoculate 100 ml volumes of test media—the inoculum being […] in the test flask.
To determine the Minimum Inhibitory effect of hexametaphosphate a series of flasks with 100 ml of LB broth were each supplemented with concentrations of hexametaphosphate ranging from 0% W/W to 1% W/W, each flask was inoculated with a standard inoculum to achieve 1×10^3 viable bacterial in the flask, the flasks were incubated at 37° C. in a rotary incubator for 24 hours and evaluated visually for growth at that time.
Following visual evaluation, 0.5% sterile calcium chloride was added to all flasks and incubation continued for a further 24 hours.

With `[Ca+2].[Cl-].[Cl-]` [Calcium, calcium chloride], the “24 H CFU/ml” value (0.5% Calcium, LB broth) is given as >10^9 CFU/ml. Further, under “0.5% calcium chloride supplement alone”, the effect on growth entry is reported as “no effect on growth”.
For the molecule `O=P1([O-])OP(=O)([O-])OP(=O)([O-])OP(=O)([O-])OP(=O)([O-])OP(=O)([O-])O1.[Na+].[Na+].[Na+].[Na+].[Na+].[Na+]` [SHMP, sodium hexametaphosphate], the “24 H CFU/ml” value (0.27% SHMP, LB broth) was ~2 × 10^2 CFU/ml. For the same molecule, where the note is “0.27% hexametaphosphate, 24 hours”, the residual viability was 2×10^2. Moreover, for the setting “0.5% calcium chloride”, the “concentrations that remained inhibited post addition of calcium chloride” value was “at least 0.5%” and the “concentrations with full growth 24 hours post addition of calcium chloride” value is recorded as not above 0.27%. For the same molecule, the “effect on microbial growth under conditions of excess calcium” value (0.5% calcium chloride, 0.27% SHMP, 0.375% functional emulsion) was “no inhibitory effect on microbial growth”. Besides, under “LB broth, 24 hours, no calcium supplementation”, the “concentrations at which growth was apparently inhibited” value is listed as not below 0.05%.
For `O=c1ccn([C@@H]2O[C@H](COP(=O)(O)O)[C@@H](O)[C@H]2O)c(=O)[nH]1` [Uridine monophosphate], the “critical limit in combination with 0.5% calcium chloride” value is on record as “inconclusive”.
As to `O=P([O-])([O-])O.[Na+].[Na+]` [di-sodium orthophosphate], the “critical limit in combination with 0.5% calcium chloride” value is 0.75%.
On the same count and under the same terms, the result for `O=P([O-])([O-])O[C@H]1[C@H](OP(=O)([O-])O)[C@H](OP(=O)([O-])[O-])[C@H](OP(=O)([O-])O)[C@@H](OP(=O)([O-])[O-])[C@@H]1OP(=O)([O-])O.[Na+].[Na+].[Na+].[Na+].[Na+].[Na+].[Na+].[Na+].[Na+]` [sodium phytate] reads 0.2%; that for `O=C([O-])CC(O)(CC(=O)[O-])C(=O)[O-].[Na+].[Na+].[Na+]` [tri-sodium citrate], 0.5%.

Source of the values: patent US12484600B2, “Expanded foam for delivery of functional ingredients” (Boehringer Ingelheim Vetmedica GmbH, priority 2020, dated 2025).
